In PubChem BioAssay AID256 (DTP/NCI, 2004):
Values joined by “and” are separate entries in the source; they are usually repeats but may differ in a detail not shown here. Identical values can stand only once. Inconclusive results and toxic doses are left out. The calls were made as follows: active = survival T/C of 150% or more; inactive = T/C below 125% in these data.

Test system: CD2F1 mice, L1210 leukemia ip, survival T/C
Assay: NCI In Vivo Anticancer Drug Screen. Data for tumor model L1210 Leukemia (intraperitoneal) in CD2F1 (CDF1) mice
Conditions: higher = longer survival
In short: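 Tumor-bearing mice (transplanted tumor) were split into treated and vehicle control groups, and the measured endpoint of each treated group was divided by that of its vehicle controls.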

[1] = endpoint: mean survival time, dose: 100.0 mg/kg/injection, schedule: Q04DX002 (ip), vehicle: saline with Tween-80
[2] = endpoint: mean survival time, dose: 100.0 mg/kg/injection, schedule: Q01DX001 (ip), vehicle: saline with Tween-80
[3] = endpoint: mean survival time, dose: 200.0 mg/kg/injection, schedule: Q01DX001 (ip), vehicle: saline with Tween-80
[4] = endpoint: mean survival time, dose: 400.0 mg/kg/injection, schedule: Q01DX001 (ip), vehicle: saline with Tween-80
[5] = endpoint: mean survival time, dose: 100.0 mg/kg/injection, schedule: Q04DX003 (ip), vehicle: saline with Tween-80
[6] = endpoint: mean survival time, dose: 200.0 mg/kg/injection, schedule: Q04DX003 (ip), vehicle: saline with Tween-80
[7] = endpoint: mean survival time, dose: 400.0 mg/kg/injection, schedule: Q04DX003 (ip), vehicle: saline with Tween-80

Measured: T/C

COc1cccc(Sc2ccc([N+](=O)[O-])c3no[n+]([O-])c23)c1
inactive: endpoint: median survival time, dose: 1.85 mg/kg/injection, schedule: Q01DX005 (ip), vehicle: saline with Tween-80 102 % of control | endpoint: median survival time, dose: 1.87 mg/kg/injection, schedule: Q01DX005 (ip), vehicle: saline with Tween-80 106 % of control | endpoint: median survival time, dose: 3.75 mg/kg/injection, schedule: Q01DX005 (ip), vehicle: saline with Tween-80 108 % of control and 109 % of control | endpoint: median survival time, dose: 7.5 mg/kg/injection, schedule: Q01DX005 (ip), vehicle: saline with Tween-80 107 % of control and 111 % of control | endpoint: median survival time, dose: 15.0 mg/kg/injection, schedule: Q01DX005 (ip), vehicle: saline with Tween-80 108 % of control | endpoint: median survival time, dose: 15.0 mg/kg/injection, schedule: Q01DX009 (ip), vehicle: saline with Tween-80 102 % of control and 104 % of control | endpoint: median survival time, dose: 30.0 mg/kg/injection, schedule: Q01DX005 (ip), vehicle: saline with Tween-80 102 % of control and 109 % of control | endpoint: median survival time, dose: 30.0 mg/kg/injection, schedule: Q01DX009 (ip), vehicle: saline with Tween-80 101 % of control and 103 % of control | endpoint: median survival time, dose: 60.0 mg/kg/injection, schedule: Q01DX009 (ip), vehicle: saline with Tween-80 96 % of control and 108 % of control | endpoint: median survival time, dose: 120.0 mg/kg/injection, schedule: Q01DX009 (ip), vehicle: saline with Tween-80 100 % of control

CC/C(=C(/CC)c1ccc(OP(=O)(Cl)N(CCCl)CCCl)cc1)c1ccc(OP(=O)(Cl)N(CCCl)CCCl)cc1 (configuration not stated)
inactive: endpoint: median survival time, dose: 31.25 mg/kg/injection, schedule: Q01DX001 (ip), vehicle: distilled water + Tween-80 108 % of control | endpoint: median survival time, dose: 62.5 mg/kg/injection, schedule: Q01DX001 (ip), vehicle: distilled water + Tween-80 101 % of control | endpoint: median survival time, dose: 125.0 mg/kg/injection, schedule: Q01DX001 (ip), vehicle: distilled water + Tween-80 97 % of control | endpoint: median survival time, dose: 250.0 mg/kg/injection, schedule: Q01DX001 (ip), vehicle: distilled water + Tween-80 100 % of control | endpoint: median survival time, dose: 500.0 mg/kg/injection, schedule: Q01DX001 (ip), vehicle: distilled water + Tween-80 100 % of control

O=P1(OCCBr)NCCCO1 (configuration not stated)
inactive: endpoint: mean survival time, dose: 62.5 mg/kg/injection, schedule: Q01DX001 (ip), vehicle: water 95 % of control | endpoint: mean survival time, dose: 125.0 mg/kg/injection, schedule: Q01DX001 (ip), vehicle: water 101 % of control | endpoint: mean survival time, dose: 250.0 mg/kg/injection, schedule: Q01DX001 (ip), vehicle: water 104 % of control | endpoint: mean survival time, dose: 500.0 mg/kg/injection, schedule: Q01DX001 (ip), vehicle: water 98 % of control | endpoint: mean survival time, dose: 750.0 mg/kg/injection, schedule: Q01DX001 (ip), vehicle: water 101 % of control

CC1C(=O)OC2C1CCC1(C)C(O)OC(=O)C3(O)OC231 (configuration not stated)
inactive: [1] 104 % of control | endpoint: mean survival time, dose: 200.0 mg/kg/injection, schedule: Q04DX002 (ip), vehicle: saline with Tween-80 96 % of control | endpoint: mean survival time, dose: 400.0 mg/kg/injection, schedule: Q04DX002 (ip), vehicle: saline with Tween-80 96 % of control

O=c1[nH]c(=O)n(C2CC(O)C(CO)O2)cc1/C=C/c1cccc([N+](=O)[O-])c1 (configuration not stated)
inactive: endpoint: mean survival time, dose: 6.25 mg/kg/injection, schedule: Q01DX005 (ip), vehicle: distilled water + Tween-80 98 % of control | endpoint: mean survival time, dose: 12.5 mg/kg/injection, schedule: Q01DX005 (ip), vehicle: distilled water + Tween-80 97 % of control | endpoint: mean survival time, dose: 25.0 mg/kg/injection, schedule: Q01DX005 (ip), vehicle: distilled water + Tween-80 95 % of control | endpoint: mean survival time, dose: 50.0 mg/kg/injection, schedule: Q01DX005 (ip), vehicle: distilled water + Tween-80 93 % of control | endpoint: mean survival time, dose: 100.0 mg/kg/injection, schedule: Q01DX005 (ip), vehicle: distilled water + Tween-80 94 % of control

C1=C(c2ccccc2)N(c2ccccc2)N=C(c2ccccc2)C1
inactive: [2] 94 % of control | [3] 94 % of control | [4] 98 % of control

COC1=C2CCCC2=[N+]2CCCCC2C1 (configuration not stated)
inactive: endpoint: mean survival time, dose: 100.0 mg/kg/injection, schedule: Q04DX003 (ip), vehicle: saline 96 % of control | endpoint: mean survival time, dose: 200.0 mg/kg/injection, schedule: Q04DX003 (ip), vehicle: saline 96 % of control

CC(=O)Nc1ccc(Cc2[nH]c(=O)[nH]c(=O)c2Br)cc1[N+](=O)[O-]
inactive: [2] 95 % of control | [3] 91 % of control | [4] 89 % of control

Cc1c([N+](=O)[O-])cc(C(C)(C)C)c(OS(C)(=O)=O)c1[N+](=O)[O-]
inactive: [1] 105 % of control

[I][Pt+2][I].[NH-]c1ccc(S(=O)(=O)Nc2ccccn2)cc1.[NH-]c1ccc(S(=O)(=O)Nc2ccccn2)cc1
inactive: endpoint: mean survival time, dose: 20.31 mg/kg/injection, schedule: Q04DX003 (ip), vehicle: saline with Tween-80 105 % of control | endpoint: mean survival time, dose: 40.63 mg/kg/injection, schedule: Q04DX003 (ip), vehicle: saline with Tween-80 105 % of control | endpoint: mean survival time, dose: 81.25 mg/kg/injection, schedule: Q04DX003 (ip), vehicle: saline with Tween-80 90 % of control | endpoint: mean survival time, dose: 162.5 mg/kg/injection, schedule: Q04DX003 (ip), vehicle: saline with Tween-80 94 % of control | endpoint: mean survival time, dose: 325.0 mg/kg/injection, schedule: Q04DX003 (ip), vehicle: saline with Tween-80 102 % of control

COC1=C(N)C(=O)c2nc(-c3nc(C(=O)O)c(C)c(-c4ccc(OC)c(OC)c4O)c3N)ccc2C1=O
inactive: endpoint: mean survival time, dose: 0.25 mg/kg/injection, schedule: Q01DX009 (ip), vehicle: saline with Tween-80 117 % of control | endpoint: mean survival time, dose: 0.5 mg/kg/injection, schedule: Q01DX009 (ip), vehicle: saline with Tween-80 100 % of control | endpoint: mean survival time, dose: 0.5 mg/kg/injection, schedule: Q04DX003 (ip), vehicle: saline with Tween-80 118 % of control | endpoint: mean survival time, dose: 1.0 mg/kg/injection, schedule: Q04DX003 (ip), vehicle: saline with Tween-80 105 % of control

O=Cc1[nH]c(=S)[nH]c(=O)c1CCCc1ccccc1
inactive: endpoint: mean survival time, dose: 25.0 mg/kg/injection, schedule: Q04DX002 (ip), vehicle: Klucel (hydroxypropylcellulose) (HPC) 96 % of control | endpoint: mean survival time, dose: 50.0 mg/kg/injection, schedule: Q04DX002 (ip), vehicle: Klucel (hydroxypropylcellulose) (HPC) 104 % of control | endpoint: mean survival time, dose: 100.0 mg/kg/injection, schedule: Q04DX002 (ip), vehicle: Klucel (hydroxypropylcellulose) (HPC) 93 % of control | endpoint: mean survival time, dose: 200.0 mg/kg/injection, schedule: Q04DX002 (ip), vehicle: Klucel (hydroxypropylcellulose) (HPC) 94 % of control | endpoint: mean survival time, dose: 400.0 mg/kg/injection, schedule: Q04DX002 (ip), vehicle: Klucel (hydroxypropylcellulose) (HPC) 90 % of control

COC(=O)C(C)NC(=O)CCNC(=O)OCc1ccccc1 (configuration not stated)
inactive: [5] 93 % of control | [6] 93 % of control | [7] 90 % of control

C1=C(c2ccc(-c3ccccc3)cc2)Nc2ccccc2S1
inactive: endpoint: mean survival time, dose: 100.0 mg/kg/injection, schedule: Q04DX002 (ip), vehicle: other 107 % of control | endpoint: mean survival time, dose: 200.0 mg/kg/injection, schedule: Q04DX002 (ip), vehicle: other 107 % of control

CN(Cc1ccccc1)C(=O)C(=O)c1c[nH]c2ccccc12
inactive: endpoint: mean survival time, dose: 100.0 mg/kg/injection, schedule: Q01DX009 (ip), vehicle: saline with Tween-80 95 % of control | [5] 98 % of control | endpoint: mean survival time, dose: 200.0 mg/kg/injection, schedule: Q01DX009 (ip), vehicle: saline with Tween-80 89 % of control | [6] 87 % of control | endpoint: mean survival time, dose: 400.0 mg/kg/injection, schedule: Q01DX009 (ip), vehicle: saline with Tween-80 91 % of control | [7] 90 % of control

CC(C)C(=O)/C=C/c1ccccc1
inactive: [5] 102 % of control | [6] 103 % of control | [7] 102 % of control

CC(=O)Nc1cccc(C[P+](c2ccccc2)(c2ccccc2)c2ccccc2)c1
inactive: [5] 92 % of control | [6] 92 % of control
